Laboratory results: patent US20240059689A1, “PURINE DERIVATIVES AS ANTICANCER AGENTS” (Tango Therapeutics, Inc., priority 2021, published 2024)
pIC50: −log10 of the molar value. Like-named read-outs stand apart in the source and are kept apart here.

Legend:
USP1-UAF1 = USP1-UAF1 (Homo sapiens, UniProt O94782); assay: Ubiquitin Rhodamine assay of USP1-UAF1 activity; type: biochemical
Protocol: Certain compounds of the disclosure were assessed for USP1-UAF1 activity in a Ubiquitin Rhodamine assay as described in Biology Example 1.

HCC1954 = assay: Viability assay, BRCA1 WT cell line HCC1954; type: cell-based; settings: read-out: HCC1954 rel IC50
Description: (§1) Table 1 also indicates IC50 values in a viability assay for a non-isogenic pair of BRCA1 mutant (column 5-MDA-MB-436) and BRCA1 WT (column 6—HCC1954) cell lines. These values indicate the effect of treatment with compound on cell survival.

MDA-MB-436 = assay: Viability assay, BRCA1 mutant cell line MDA-MB-436; type: cell-based; settings: BRCA1 mutant MDA-MB-436, read-out: MDA-MB-436 rel IC50
Description: as §1

[1] = Homo sapiens, HCC1954, viability
[2] = Homo sapiens, MDA-MB-436, viability

Sequence of USP1-UAF1 (O94782 whole entry): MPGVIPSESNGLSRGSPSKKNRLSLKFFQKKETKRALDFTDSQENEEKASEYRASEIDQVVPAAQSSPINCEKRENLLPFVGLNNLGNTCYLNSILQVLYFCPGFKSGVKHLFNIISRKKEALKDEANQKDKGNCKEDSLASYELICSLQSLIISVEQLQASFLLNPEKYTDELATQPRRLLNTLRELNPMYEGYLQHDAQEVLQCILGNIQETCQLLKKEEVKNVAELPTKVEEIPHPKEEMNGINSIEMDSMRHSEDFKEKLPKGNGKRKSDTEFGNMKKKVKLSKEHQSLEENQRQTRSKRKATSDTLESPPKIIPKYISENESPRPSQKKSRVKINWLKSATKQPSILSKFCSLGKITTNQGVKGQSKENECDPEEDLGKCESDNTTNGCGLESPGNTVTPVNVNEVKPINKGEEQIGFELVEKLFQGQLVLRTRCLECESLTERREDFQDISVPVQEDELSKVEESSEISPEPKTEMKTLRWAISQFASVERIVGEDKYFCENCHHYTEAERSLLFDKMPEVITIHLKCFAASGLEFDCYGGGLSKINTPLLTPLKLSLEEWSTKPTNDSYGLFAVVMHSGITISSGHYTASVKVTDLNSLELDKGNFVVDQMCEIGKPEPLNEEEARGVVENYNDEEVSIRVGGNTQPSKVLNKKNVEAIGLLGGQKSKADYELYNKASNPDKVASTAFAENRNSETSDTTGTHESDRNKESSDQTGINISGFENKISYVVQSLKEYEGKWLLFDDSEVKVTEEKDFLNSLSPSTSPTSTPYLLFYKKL
Sequence of USP1-UAF1 (Q8TAF3 whole entry partner): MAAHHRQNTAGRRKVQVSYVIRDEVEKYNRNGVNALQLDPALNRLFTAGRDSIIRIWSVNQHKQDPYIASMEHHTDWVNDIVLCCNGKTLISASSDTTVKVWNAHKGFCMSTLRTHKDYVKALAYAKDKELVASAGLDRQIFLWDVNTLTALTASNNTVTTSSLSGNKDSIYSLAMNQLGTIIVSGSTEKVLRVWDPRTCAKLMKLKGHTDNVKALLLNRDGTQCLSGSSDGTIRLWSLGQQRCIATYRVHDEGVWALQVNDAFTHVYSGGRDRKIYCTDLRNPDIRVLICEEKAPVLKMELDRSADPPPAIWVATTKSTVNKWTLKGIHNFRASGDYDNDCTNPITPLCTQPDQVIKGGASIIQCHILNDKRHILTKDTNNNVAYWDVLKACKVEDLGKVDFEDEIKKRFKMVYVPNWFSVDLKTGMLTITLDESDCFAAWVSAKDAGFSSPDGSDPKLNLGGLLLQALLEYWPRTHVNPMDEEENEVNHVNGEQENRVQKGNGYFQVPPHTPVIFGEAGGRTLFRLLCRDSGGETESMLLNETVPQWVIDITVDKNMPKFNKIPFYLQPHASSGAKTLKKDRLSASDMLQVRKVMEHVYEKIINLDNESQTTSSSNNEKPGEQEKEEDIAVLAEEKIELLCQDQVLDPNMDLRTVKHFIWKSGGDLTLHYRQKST

pIC50 (USP1-UAF1)	pIC50 (HCC1954; [1])	pIC50 (MDA-MB-436; [2])	pIC50 (HCC1954; viability)	pIC50 (MDA-MB-436; viability)	SMILES
5.00 to 7.00	5.00 to 6.60	5.00 to 6.60			Cn1cc(C(F)(F)F)nc1-c1ccc(Cn2c(=N)n(C)c3cnc(-c4c(C(F)(F)F)nn(C)c4C#N)nc32)cc1 [Example T-072]
5.00 to 7.00	5.00 to 6.60	5.00 to 6.60			CC(C)c1ccccc1-c1ncc2c(n1)n(Cc1ccc(-c3cc(Cl)cn3C)cc1)c(=N)n2C [Example A-7, 9-(4-(4-chloro-1-methyl-1H-pyrrol-2-yl)benzyl)-2-(2-isopropylphenyl)-7-methyl-7,9-dihydro-8H-purin-8-imine]
5.00 to 7.00	≤ 5.00	5.00 to 6.60			Cn1cc(C(F)(F)F)nc1-c1ccc(Cn2c(=N)n(C)c3cnc(-c4c(C5CC5)cnn4C)nc32)cc1 [Example T-017]
5.00 to 7.00					CC(C)c1ccccc1-c1ncc2c(n1)n(Cc1ccc(N3CCC(C(F)(F)F)C3)cc1)c(=N)n2C (single isomer, unassigned) [Example A-10e, 2-(2-isopropylphenyl)-7-methyl-9-(4-(3-(trifluoromethyl)pyrrolidin-1-yl)benzyl)-7,9-dihydro-8H-purin-8-imine]
5.00 to 7.00	≤ 5.00	5.00 to 6.60			COc1ncnc(C2CC2)c1-c1ncc2c(n1)n(Cc1cc(-c3nc(C(F)(F)F)cn3C)cs1)c(=N)n2C [Example T-014]
5.00 to 7.00	5.00 to 6.60	5.00 to 6.60			CC#Cc1nc(-c2ccccc2Cl)nc2c1n(C)c(=N)n2Cc1ccc(-c2nc(Cl)cn2C)cc1 [Example A-45, 9-(4-(4-chloro-1-methyl-1H-imidazol-2-yl)benzyl)-2-(2-chlorophenyl)-7-methyl-6-(prop-1-yn-1-yl)-7,9-dihydro-8H-purin-8-imine]
5.00 to 7.00	≤ 5.00	5.00 to 6.60			Cn1cc(C(F)(F)F)nc1-c1ccc(Cn2c(=N)n(C)c3cnc(-c4ccccc4C(F)(F)F)nc32)cn1 [Example T-073]
5.00 to 7.00	≤ 5.00	5.00 to 6.60			Cn1cc(C(F)(F)F)nc1-c1ccc(Cn2c(=N)n(C)c3cnc(-c4c(C#N)cnn4C)nc32)cc1 [Example T-022]
5.00 to 7.00	≤ 5.00	5.00 to 6.60			Cn1c(=N)n(Cc2ccc(-c3nc(C(F)(F)F)cn3CCO)cc2)c2nc(-c3ccccc3C(F)(F)F)ncc21 [Example T-083]
5.00 to 7.00	5.00 to 6.60	5.00 to 6.60			COc1ccn(-c2ccc(Cn3c(=N)n(C)c4cnc(-c5ccccc5C(C)C)nc43)cc2C)n1 [Example T-056]
5.00 to 7.00			≤ 5.00	5.00 to 6.60	CC(C)c1ccccc1-c1ncc2c(n1)n(C(C)C1CCN(c3nc(Cl)cn3C)CC1)c(=N)n2C (single isomer, unassigned) [Example A-26d, 9-(1-(1-(4-chloro-1-methyl-1H-imidazol-2-yl)piperidin-4-yl)ethyl)-2-(2-isopropylphenyl)-7-methyl-7,9-dihydro-8H-purin-8-imine]
5.00 to 7.00	≤ 5.00	≤ 5.00			Cn1cc(C(F)(F)F)nc1-c1ccc(Cn2c(=N)n(C)c3cnc(-c4cccnc4C#N)nc32)cc1 [Example T-050]
5.00 to 7.00	≤ 5.00	5.00 to 6.60			Cn1cc(C(F)(F)F)nc1-c1ccc(Cn2c(=N)n(C)c3cnc(-c4cccnc4C4(C#N)CC4)nc32)cc1 [Example T-041]
5.00 to 7.00	5.00 to 6.60	5.00 to 6.60			CNc1ncccc1-c1ncc2c(n1)n(Cc1ccc(-c3nc(C(F)(F)F)cn3C)cc1)c(=N)n2C [Example T-075]
7.00 to 7.52					Cc1cccc(Cl)c1-c1ncc2c(n1)n(Cc1ccc(-c3nc(C(F)(F)F)cn3C)cc1)c(=N)n2C [Example B-7, 2-(2-chloro-6-methylphenyl)-7-methyl-9-(4-(1-methyl-4-(trifluoromethyl)-1H-imidazol-2-yl)benzyl)-7,9-dihydro-8H-purin-8-imine]
5.00 to 7.00	≤ 5.00	5.00 to 6.60			COc1ncnc(C2CC2)c1-c1ncc2c(n1)n(Cc1cc(C)c(-c3nc(C(F)(F)F)cn3C)cc1C)c(=N)n2C [Example T-026]
5.00 to 7.00	5.00 to 6.60	5.00 to 6.60			COc1nc(-c2ccccc2C(C)C)nc2c1n(C)c(=N)n2Cc1ccc(-c2nc(C(F)(F)F)cn2C)cc1 [Example A-20, 2-(2-isopropylphenyl)-6-methoxy-7-methyl-9-(4-(1-methyl-4-(trifluoromethyl)-1H-imidazol-2-yl)benzyl)-7,9-dihydro-8H-purin-8-imine]
5.00 to 7.00	≤ 5.00	5.00 to 6.60			Cc1cnn(C)c1-c1ncc2c(n1)n(Cc1ccc(-c3nc(C(F)(F)F)cn3C)cc1)c(=N)n2C [Example T-012]
5.00 to 7.00	≤ 5.00	5.00 to 6.60			CNC(=O)c1nc(-c2ccccc2C(C)C)nc2c1n(C)c(=N)n2Cc1ccc(-c2nc(C(F)(F)F)cn2C)cc1 [Example A-39, 8-imino-2-(2-isopropylphenyl)-N, 7-dimethyl-9-(4-(1-methyl-4-(trifluoromethyl)-1H-imidazol-2-yl)benzyl)-8,9-dihydro-7H-purine-6-carboxamide]
5.00 to 7.00					CC(C)c1ccccc1-c1ncc2c(n1)n(Cc1ccc(-c3ncc[nH]3)cc1)c(=N)n2C [Example A-4, 9-(4-(1H-imidazol-2-yl)benzyl)-2-(2-isopropylphenyl)-7-methyl-7H-purin-8(9H)-imine]
5.00 to 7.00	≤ 5.00	5.00 to 6.60			COc1ncccc1-c1ncc2c(n1)n(C1(c3ccc(-c4nc(C(F)(F)F)cn4C)cc3)CC1)c(=N)n2C [Example T-043]
5.00 to 7.00	≤ 5.00	5.00 to 6.60			CC(C)c1ccccc1-c1nc(C(=O)N(C)C)c2c(n1)n(Cc1ccc(-c3nc(C(F)(F)F)cn3C)cc1)c(=N)n2C [Example A-40, 8-imino-2-(2-isopropylphenyl)-N,N, 7-trimethyl-9-(4-(1-methyl-4-(trifluoromethyl)-1H-imidazol-2-yl)benzyl)-8,9-dihydro-7H-purine-6-carboxamide]
5.00 to 7.00					CC(C)c1ccccc1-c1ncc2c(n1)n(Cc1ccc(N3CCC(C(F)(F)F)C3)cc1)c(=N)n2C (single isomer, unassigned) [Example A-10d, 2-(2-isopropylphenyl)-7-methyl-9-(4-(3-(trifluoromethyl)pyrrolidin-1-yl)benzyl)-7,9-dihydro-8H-purin-8-imine]
	5.00 to 6.60	5.00 to 6.60			Cn1cc(Cl)nc1-c1ccc(Cn2c(=N)n(C)c3c(C#CC4CC4)nc(-c4ccccc4Cl)nc32)cc1 [Example A-46, 9-(4-(4-chloro-1-methyl-1H-imidazol-2-yl)benzyl)-2-(2-chlorophenyl)-6-(cyclopropylethynyl)-7-methyl-7,9-dihydro-8H-purin-8-imine]
5.00 to 7.00	≤ 5.00	5.00 to 6.60			Cn1c(=N)n(Cc2ccc(-c3nc(C(F)(F)F)cn3C3COC3)cc2)c2nc(-c3ccccc3C(F)(F)F)ncc21 [Example T-077]
5.00 to 7.00					CC(C)c1ccccc1-c1ncc2c(n1)n(Cc1ccc(-c3cccn3C)cc1)c(=N)n2C [Example T-088]
5.00 to 7.00					CC(C)c1ccccc1-c1ncc2c(n1)n(Cc1ccc(N3C[C@@H](C(F)(F)F)C[C@H]3C)cc1)c(=N)n2C [Example T-024]
